Patent US8962844B2, “1,3,4-oxadiazole and 1,3,4-thiadiazole β-lactamase inhibitors” (priority 2012, dated 2015)
Where a name gives a salt, the structure may show the parent alone.

Experiments:
[1] = test system: bacterial strains that express the class D cephalosporinase OXA-15; assay: Standard BLI potentiation MIC / synergy MIC (sMIC) assays run in the presence of a β-lactam, OXA-15 expressing strains; format: cell-based, E. coli; conditions: BLI in combination with a β-lactam; comparison with Avibactam (comparator compound CCC)
Procedure, shortened: (§1)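 Isogenic E. coli DH10B carrying cloned β-lactamase genes on pBR322-derived plasmid (blaTEM-1 promoter, tetracycline 25 μg/mL) tested by CLSI broth microdilution in CAMHB. Test compound and β-lactam each diluted and combined; MIC reported in presence of β-lactam.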

[2] = test system: bacterial strains that express KPC β-lactamases; assay: Standard BLI potentiation MIC / synergy MIC (sMIC) assays run in the presence of a β-lactam, KPC expressing strains; format: cell-based; conditions: more active for at least one KPC strain and/or better spectrum of activity than Avibactam; BLI in combination with a β-lactam
Procedure, shortened: as §1

| Structure (SMILES) | activity against bacterial strains that express the class D cephalosporinase OXA-15, compared with Avibactam [1] | activity and/or spectrum of activity against bacterial strains that express KPC β-lactamases, compared with Avibactam [2] |
| --- | --- | --- |
| N[C@H]1C[C@@H](CCc2nnc([C@@H]3CC[C@@H]4CN3C(=O)N4OS(=O)(=O)O)o2)C1 [Compound 754, (2S,5R)-2-(5-(2-((1s,3S)-3-aminocyclobutyl)ethyl)-1,3,4-oxadiazol-2-yl)-7-oxo-1,6-diazabicyclo[3.2.1]octan-6-yl hydrogen sulfate] | more active than Avibactam | more active than Avibactam |
| CC(C)(N)Cc1nnc([C@@H]2CC[C@@H]3CN2C(=O)N3OS(=O)(=O)O)o1 [Compound 737, (2S,5R)-2-(5-(2-amino-2-methylpropyl)-1,3,4-oxadiazol-2-yl)-7-oxo-1,6-diazabicyclo[3.2.1]octan-6-yl hydrogen sulfate] | more active than Avibactam | more active than Avibactam |
| NCc1nnc([C@@H]2CC[C@@H]3CN2C(=O)N3OS(=O)(=O)O)o1 [Compound 702, (2S,5R)-2-(5-(aminomethyl)-1,3,4-oxadiazol-2-yl)-7-oxo-1,6-diazabicyclo[3.2.1]octan-6-yl hydrogen sulfate] | more active than Avibactam | more active than Avibactam |
| N[C@H]1C[C@H](c2nnc([C@@H]3CC[C@@H]4CN3C(=O)N4OS(=O)(=O)O)o2)C1 [Compound 727, (2S,5R)-2-(5-((1r,3S)-3-aminocyclobutyl)-1,3,4-oxadiazol-2-yl)-7-oxo-1,6-diazabicyclo[3.2.1]octan-6-yl hydrogen sulfate] | more active than Avibactam | more active than Avibactam |
| CNCCCc1nnc([C@@H]2CC[C@@H]3CN2C(=O)N3OS(=O)(=O)O)o1 [Compound 734, (2S,5R)-2-(5-(3-(methylamino)propyl)-1,3,4-oxadiazol-2-yl)-7-oxo-1,6-diazabicyclo[3.2.1]octan-6-yl hydrogen sulfate] | more active than Avibactam | more active than Avibactam |
| C[n+]1ccc(-c2nnc([C@@H]3CC[C@@H]4CN3C(=O)N4OS(=O)(=O)[O-])o2)cc1 [Compound 782, (2S,5R)-2-(5-(1-methylpyridin-1-ium-4-yl)-1,3,4-oxadiazol-2-yl)-7-oxo-1,6-diazabicyclo[3.2.1]octan-6-yl sulfate] | more active than Avibactam | more active than Avibactam |
| O=C1N2C[C@@H](CC[C@H]2c2nnc(CCNCCO)o2)N1OS(=O)(=O)O [Compound 736, (2S,5R)-2-(5-(2-((2-hydroxyethyl)amino)ethyl)-1,3,4-oxadiazol-2-yl)-7-oxo-1,6-diazabicyclo[3.2.1]octan-6-yl hydrogen sulfate] | more active than Avibactam | more active than Avibactam |
| N=C(N)N1CC(NCc2nnc([C@@H]3CC[C@@H]4CN3C(=O)N4OS(=O)(=O)O)o2)C1 [Compound 746, (2S,5R)-2-(5-(((1-carbamimidoylazetidin-3-yl)amino)methyl)-1,3,4-oxadiazol-2-yl)-7-oxo-1,6-diazabicyclo[3.2.1]octan-6-yl hydrogen sulfate] | more active than Avibactam | more active than Avibactam |
| NC(=O)c1nnc([C@@H]2CC[C@@H]3CN2C(=O)N3OS(=O)(=O)O)o1 [Compound 706, (2S,5R)-2-(5-carbamoyl-1,3,4-oxadiazol-2-yl)-7-oxo-1,6-diaza-bicyclo[3.2.1]octan-6-yl hydrogen sulfate] | more active than Avibactam | more active than Avibactam |
| N[C@H]1C[C@H](CCc2nnc([C@@H]3CC[C@@H]4CN3C(=O)N4OS(=O)(=O)O)o2)C1 [Compound 753, (2S,5R)-2-(5-(2-((1r,3R)-3-aminocyclobutyl)ethyl)-1,3,4-oxadiazol-2-yl)-7-oxo-1,6-diazabicyclo[3.2.1]octan-6-yl hydrogen sulfate] | more active than Avibactam | more active than Avibactam |
| O=C1N2C[C@@H](CC[C@H]2c2nnc(COC3CNC3)o2)N1OS(=O)(=O)O [Compound 744, (2S,5R)-2-(5-((azetidin-3-yloxy)methyl)-1,3,4-oxadiazol-2-yl)-7-oxo-1,6-diazabicyclo[3.2.1]octan-6-yl hydrogen sulfate] | more active than Avibactam | more active than Avibactam |
| NC1CC(NCc2nnc([C@@H]3CC[C@@H]4CN3C(=O)N4OS(=O)(=O)O)o2)C1 (stereo partly drawn) [Compound 755, (2S,5R)-2-(5-(((3-aminocyclobutyl)amino)methyl)-1,3,4-oxadiazol-2-yl)-7-oxo-1,6-diazabicyclo[3.2.1]octan-6-yl hydrogen sulfate] | more active than Avibactam | more active than Avibactam |
| O=C1N2C[C@@H](CC[C@H]2c2nnc(CNC3CNC3)o2)N1OS(=O)(=O)O [Compound 726, (2S,5R)-2-(5-((azetidin-3-ylamino)methyl)-1,3,4-oxadiazol-2-yl)-7-oxo-1,6-diazabicyclo[3.2.1]octan-6-yl hydrogen sulfate] | more active than Avibactam | more active than Avibactam |
| N[C@H]1C[C@@H](Cc2nnc([C@@H]3CC[C@@H]4CN3C(=O)N4OS(=O)(=O)O)o2)C1 [Compound 728, (2S,5R)-2-(5-(((1s,3R)-3-aminocyclobutyl)methyl)-1,3,4-oxadiazol-2-yl)-7-oxo-1,6-diazabicyclo[3.2.1]octan-6-yl hydrogen sulfate] | more active than Avibactam | more active than Avibactam |
| O=C1N2C[C@@H](CC[C@H]2c2nnc([C@H]3[C@@H]4CNC[C@@H]43)o2)N1OS(=O)(=O)O [Compound 740, (2S,5R)-2-(5-(3-azabicyclo[3.1.0]hexan-6-yl)-1,3,4-oxadiazol-2-yl)-7-oxo-1,6-diazabicyclo[3.2.1]octan-6-yl hydrogen sulfate] | more active than Avibactam | more active than Avibactam |
| O=C1N2C[C@@H](CC[C@H]2c2nnc(C3CNC3)o2)N1OS(=O)(=O)O [Compound 708, (2S,5R)-2-(5-(azetidin-3-yl)-1,3,4-oxadiazol-2-yl)-7-oxo-1,6-diazabicyclo[3.2.1]octan-6-yl hydrogen sulfate] | more active than Avibactam | more active than Avibactam |
| N=C(N)N1CC(Cc2nnc([C@@H]3CC[C@@H]4CN3C(=O)N4OS(=O)(=O)O)o2)C1 [Compound 741, (2S,5R)-2-(5-((1-carbamimidoylazetidin-3-yl)methyl)-1,3,4-oxadiazol-2-yl)-7-oxo-1,6-diazabicyclo[3.2.1]octan-6-yl hydrogen sulfate] | more active than Avibactam | more active than Avibactam |
| N=C(N)NCC(O)Cc1nnc([C@@H]2CC[C@@H]3CN2C(=O)N3OS(=O)(=O)O)o1 (stereo partly drawn) [Compound 730, (2S,5R)-2-(5-(3-guanidino-2-hydroxypropyl)-1,3,4-oxadiazol-2-yl)-7-oxo-1,6-diazabicyclo[3.2.1]octan-6-yl hydrogen sulfate] | more active than Avibactam | more active than Avibactam |
| N=C1NCC(c2nnc([C@@H]3CC[C@@H]4CN3C(=O)N4OS(=O)(=O)O)o2)N1 (stereo partly drawn) [Compound 767, (2S,5R)-2-(5-(2-iminoimidazolidin-4-yl)-1,3,4-oxadiazol-2-yl)-7-oxo-1,6-diazabicyclo[3.2.1]octan-6-yl hydrogen sulfate] | more active than Avibactam | more active than Avibactam |
| N=C(N)NC[C@H](O)c1nnc([C@@H]2CC[C@@H]3CN2C(=O)N3OS(=O)(=O)O)o1 [Compound 732, (2S,5R)-2-(5-((S)-2-guanidino-1-hydroxyethyl)-1,3,4-oxadiazol-2-yl)-7-oxo-1,6-diazabicyclo[3.2.1]octan-6-yl hydrogen sulfate] | more active than Avibactam | more active than Avibactam |
